# US11541015B2, “Self-righting systems, methods, and related components” (priority 2017, dated 2023)
# System: glucose-6-phosphate
# Conditions: micropost tips 40% G6PD and 60% PEO 200 k, versus uncompressed powder
# Method: To perform the activity assay on G6PD, an activity assay kit (Sigma Aldrich) was used which measures the amount of oxidized glucose-6-phosphate. […] Duplicate assays were performed on the dissolved solution.
substance,measurement,value
glucose-6-phosphate dehydrogenase,G6PD activity after the manufacturing process,maintain their activity
